Measurements from US20240261225A1, “FORMIC ACID AS PROCESSING AID IN SPRAY DRYING FOR BASIC DRUGS” (Lonza Bend Inc., priority 2021, published 2024).
In brackets after ≈: the same amount, converted by molar mass.

Assays:
[1] = Gefitinib solubility in methanol and methanol:water mixtures (saturated solutions, HPLC); type: physicochemical; conditions: 20° C.; for Solubility without formic acid: calculated based on densities at RT
Method: Crystalline gefitinib was added in excess to methanol and methanol:water mixtures to form saturated solutions at 20° C. After 24 hour of stirring, 1 mL aliquots were centrifuged at 10'000 RCF for 3 min. The supernatant was then analyzed for gefitinib concentration by HPLC.

[2] = physchem; conditions: 21 °C, organic solvent or mixture, thermodynamic from solid, Solubility with formic acid
Method: The solubility of gefitinib in solvent mixtures with 98% formic acid were obtained by suspending at RT 300 mg of crystalline gefitinib in 5 mL of solvent containing 100 microliters of formic acid at 21° C. (4.0 eq of formic acid). Both solutions were visually clear solutions at 60 mg/mL.
5 ml of a mixture of 4.9 ml of 90:10 methanol/water w/w with 0.1 ml HCOOH weigh 4.122 g based on the densities at RT as stated below.
5 ml of a mixture of 4.9 ml 80:20 methanol:water w/w with 0.1 ml HCOOH weigh 4.212 g based on the densities at RT as stated below.
The solution in the mixture of 4.9 ml of 90:10 MeOH:H2O w/w with 0.1 ml HCOOH was a visually clear solution at 72.8 mg/g based on the densities at RT as stated below.
The solution in the mixture of 4.9 ml of 80:20 MeOH:H2O w/w with 0.1 ml HCOOH was a visually clear solution at 71.2 mg/g based on the densities at RT as stated below.
[Solubility with formic acid]/[Solubility without formic acid]

[3] = physchem; conditions: 25 °C, organic solvent or mixture
[4] = Nilotinib solubilities without and with formic acid; conditions: for Solubility with formic acid: 4.0 molar equivalents of formic acid
[5] = according to go.drugbank.com; cited from earlier work

Row | SMILES | Solubility without formic acid ([1]; MeOH:H2O 80:20 (w/w)) [mg/g] | Solubility without formic acid ([1]; MeOH:H2O 90:10 (w/w)) [mg/g] | Solubility without formic acid ([1]; MeOH:H2O 100:0 (w/w)) [mg/g] | solubility at 24 h ([1]; methanol, organic solvent or mixture, thermodynamic from solid, MeOH:H2O 100:0 (w/w), read-out: Solubility without formic acid) [µg/mL] | solubility [2] [µg/mL] | solubility ([3]; methanol) [µg/mL] | solubility ([3]; methanol:water 90:10 (w/w)) [µg/mL] | Solubility with formic acid ([4]; MeOH:H2O 80:20 (w/w), 25° C.) [µg/mL] | Solubility without formic acid ([4]; MeOH:H2O 80:20 (w/w), 25° C.) [µg/mL] | Solubility with formic acid ([4]; MeOH:H2O 90:10 (w/w), 25° C.) [µg/mL] | Solubility with formic acid ([4]; MeOH:H2O 100:0 (w/w), 25° C.) [µg/mL] | effect of addition of formic acid on solubility over the solubility in MeOH ([4]; formic acid with and without the presence of water) | basic pKa [5]
1 | COc1cc2ncnc(Nc3ccc(F)c(Cl)c3)c2cc1OCCCN1CCOCC1 [gefitinib] | 7.6 | 7.4 | 8.8 | 7000 (≈ 15.7 mM) | ≥ 60000 |  |  |  |  |  |  |  | 
2 | Cc1cn(-c2cc(NC(=O)c3ccc(C)c(Nc4nccc(-c5cccnc5)n4)c3)cc(C(F)(F)F)c2)cn1 [nilotinib] |  |  |  |  |  | 2900 (≈ 5.48 mM) | 2000 (≈ 3.78 mM) | 8200 | 1000 (≈ 1.89 mM) | 8200 | 7900 | increase of solubility | 5.92
